Publication PMC11656837, “pH-Responsive Peptide Nanoparticles Deliver Macromolecules to Cells via Endosomal Membrane Nanoporation” (ACS Nano, 2024)

Tested on: HeLa cells
Experiment: Cytosolic delivery of AF488-dextran 10 kDa (confocal microscopy)
Assay type: cell-based, human
Protocol: Just before imaging, cell nuclei were stained with Hoechst 33342 (blue); the external AF488-dextran was washed away, and AF647-dextran (lavender) was added to mark the extracellular spaces and cell boundaries. […] Individual intensity scans across single cells, indicated by the yellow arrows, are plotted in Figure 5E,F as examples. To measure cytosolic dextran concentrations, dextran intensity was measured in the external spaces, where it is at background levels and in puncta-free, nuclear/cytosolic areas of each cell.
These experiments were done using a very low solution concentration of 0.1 μM AF488-dextran 10 kDa to minimize any possible self-quenching in endosomes and to minimize any osmotic effect of the dextran on endosomal stability. […] Before imaging, the AF488-dextran was washed off, and Cascade Blue dextran 10 kDa was added to mark the external spaces and cell boundaries. […] Dextran delivered to the cytosol and nucleus, which was the only intensity that we measured in Figure 6A,B, was identified by its diffuse and uniform intensity in the nucleus and cytosol of each cell. In Figure 6E, cytosolic and nuclear concentrations of dextran are expressed as a percent of the external concentration incubated with cells based on comparison to a standard curve of fluorescence intensity versus concentration that was measured separately at the same instrument settings.
After overnight incubation, external AF488-dextran (green) was washed off and replaced with Cascade Blue dextran (blue) or AF647-dextran (lavender) just before imaging to mark the external spaces and cell boundaries. Cells were also treated with Hoechst 33342 (blue) to stain the nuclei. Quantitation was performed by generating a standard curve from microscopy images of solutions of AF488-dextran of known concentrations. For quantification, we noted the intensity of the cell nuclei. Multiple small circular areas of interest of a preset size were selected in cells in areas that were in the nucleus or had no obvious puncta. The same was done for the standard curve images. The fluorescence of each point of interest was quantified using the Nikon Elements software, and the concentration was determined using a standard curve and expressed as a percent of the initial incubating concentration.

CCCCCCCCCCCCCCCC(=O)NCC(=O)N[C@@H](C(=O)NCC(=O)N[C@H](CCC(=O)O)C(=O)N[C@@H](C(=O)N[C@H](CC(C)C)C(=O)N[C@H](Cc1c[nH]cn1)C(=O)N[C@H](CCC(=O)O)C(=O)N[C@H](CC(C)C)C(=O)N[C@H](C)C(=O)N[C@H](CCC(=O)O)C(=O)NCC(=O)N[C@H](CC(C)C)C(=O)N1CCC[C@@H]1C(=O)N[C@H](CCC(=O)O)C(=O)N[C@H](CC(C)C)C(=O)N[C@H](CCC(N)=O)C(=O)N[C@H](CCC(=O)O)C(=O)N[C@H](Cc1c[nH]c2ccccc12)C(=O)N[C@@H](C(=O)N[C@H](Cc1c[nH]cn1)C(=O)N[C@H](C)C(=O)N[C@H](C)C(=O)N[C@H](CCC(N)=O)C(=O)N[C@H](CCC(N)=O)C(=O)N[C@H](CC(C)C)C(N)=O)[C@H](C)CC)C(C)C)[C@H](C)CC [C16-D-pHD108]
cytosolic dextran concentration (3 μM peptide, 0.1 μM AF488-dextran 10 kDa, overnight, 37 °C): Low but statistically significant | cytosolic dextran concentration, average, percent of applied external concentration (25 μM peptide, 0.1 μM AF488-dextran 10 kDa, overnight, 37 °C, ~50 cells): about 12% | dextran staining of nucleus and cytosol (25 μM peptide, 25 μM AF488-dextran 10 kDa, overnight, 37 °C): diffusely and uniformly stained with dextran | delivery of dextran to the cytosol at 4 °C (25 μM peptide, 4 °C): does not enable any measurable delivery of dextran to the cytosol | plasma membrane permeabilization (entry of Cascade Blue dextran added before imaging) (25 μM peptide, 37 °C): not permeabilized | cytosolic delivery of AF488-dextran, C16-L-pHD108 compared with C16-D-pHD108 (HeLa, overnight, 37 °C): significantly more active
